Laboratory results: the NIST ThermoML archive (doi:10.1016/j.tca.2009.06.015)

What was measured:
[1] = xn = mol fraction of the nth substance listed; details: 101 kPa, Liquid; for viscosity: Capillary tube (Ostwald / Ubbelohde) method; for mass density: Vibrating tube method
[2] = refractive index (Na D-line) (dimensionless); xn = mol fraction of the nth substance listed; details: 101 kPa, Liquid, Standard Abbe refractometry

CCCCCC(C)O (stereo unspecified) [2-heptanol] + CC#N
Details | mass density, [1] [kg/m3] | refractive index, [2] | viscosity, [1] [mPa·s]
293.15 K, x2 = 0 | 817.18 | 1.4206 | 6.52
293.15 K, x2 = 0.1142 | 814.97 | 1.417 | 4.326
293.15 K, x2 = 0.1947 | 813.16 | 1.4145 | 3.337
293.15 K, x2 = 0.251 | 811.78 | 1.4124 | 2.77
293.15 K, x2 = 0.3491 | 809.24 | 1.4094 | 2.133
293.15 K, x2 = 0.4525 | 806.32 | 1.4042 | 1.584
293.15 K, x2 = 0.5436 | 803.52 | 1.3986 | 1.239
293.15 K, x2 = 0.6702 | 798.9 | 1.3881 | 0.8636
293.15 K, x2 = 0.7574 | 795.18 | 1.3793 | 0.6732
293.15 K, x2 = 0.877 | 789.27 | 1.3637 | –
293.15 K, x2 = 0.9588 | 784.77 | 1.3516 | 0.3857
298.15 K, x2 = 0 | 813.33 | 1.4188 | 5.33
298.15 K, x2 = 0.1142 | 811.07 | 1.4158 | 3.583
298.15 K, x2 = 0.1947 | 809.19 | 1.4146 | 2.821
298.15 K, x2 = 0.251 | 807.74 | 1.4129 | 2.402
298.15 K, x2 = 0.3491 | 805 | 1.4094 | 1.853
298.15 K, x2 = 0.4525 | 802.07 | 1.4039 | 1.395
298.15 K, x2 = 0.5436 | 799.12 | 1.3979 | 1.106
298.15 K, x2 = 0.6702 | 794.43 | 1.3873 | 0.7855
298.15 K, x2 = 0.7574 | 790.57 | 1.3781 | 0.6191
298.15 K, x2 = 0.877 | 784.26 | 1.3629 | –
298.15 K, x2 = 0.9588 | 779.64 | 1.3503 | 0.3652
303.15 K, x2 = 0 | 809.44 | 1.4165 | 4.301
303.15 K, x2 = 0.1142 | 807.06 | 1.4154 | 3.03
303.15 K, x2 = 0.1947 | 805.14 | 1.4147 | 2.409
303.15 K, x2 = 0.251 | 803.62 | 1.4135 | 2.066
303.15 K, x2 = 0.3491 | 800.93 | 1.4093 | 1.619
303.15 K, x2 = 0.4525 | 797.79 | 1.4029 | 1.251
303.15 K, x2 = 0.5436 | 794.69 | 1.3973 | 0.9893
303.15 K, x2 = 0.6702 | 789.88 | 1.3863 | 0.7174
303.15 K, x2 = 0.7574 | 786 | 1.3774 | 0.5762
303.15 K, x2 = 0.877 | 779.5 | 1.362 | –
303.15 K, x2 = 0.9588 | 774.36 | 1.3481 | 0.3483
308.15 K, x2 = 0 | 805.5 | 1.4143 | 3.528
308.15 K, x2 = 0.1142 | 803.17 | 1.4139 | 2.578
308.15 K, x2 = 0.1947 | 801.12 | 1.413 | 2.072
308.15 K, x2 = 0.251 | 799.49 | 1.4116 | 1.816
308.15 K, x2 = 0.3491 | 796.53 | 1.4079 | 1.466
308.15 K, x2 = 0.4525 | 793.31 | 1.4022 | 1.112
308.15 K, x2 = 0.5436 | 790.11 | 1.3958 | 0.8985
308.15 K, x2 = 0.6702 | 785.23 | 1.3845 | 0.6625
308.15 K, x2 = 0.7574 | 781.16 | 1.3744 | 0.539
308.15 K, x2 = 0.877 | 774.15 | 1.3576 | 0.4454
308.15 K, x2 = 0.9588 | 768.93 | 1.3452 | 0.3326

CC#N [acetonitrile] + CC(C)O
Details | mass density, [1] [kg/m3] | refractive index, [2] | viscosity, [1] [mPa·s]
293.15 K, x1 = 0.0496 | 784.97 | 1.3757 | 1.972
293.15 K, x1 = 0.0906 | 784.72 | 1.3751 | 1.688
293.15 K, x1 = 0.1529 | 784.31 | 1.3737 | 1.368
293.15 K, x1 = 0.2022 | 783.9 | 1.3726 | 1.176
293.15 K, x1 = 0.2783 | 783.36 | 1.3705 | 0.9608
293.15 K, x1 = 0.3678 | 782.71 | 1.3677 | 0.7912
293.15 K, x1 = 0.4768 | 782.02 | 1.364 | 0.6502
293.15 K, x1 = 0.6132 | 781.53 | 1.359 | 0.51
293.15 K, x1 = 0.7714 | 781.13 | 1.3528 | 0.4156
293.15 K, x1 = 0.9207 | 781.26 | 1.3469 | 0.3716
293.15 K, x1 = 1 | 782.04 | 1.3436 | 0.3542
298.15 K, x1 = 0.0496 | 780.76 | 1.3733 | 1.691
298.15 K, x1 = 0.0906 | 780.3 | 1.3724 | 1.461
298.15 K, x1 = 0.1529 | 779.7 | 1.3713 | 1.207
298.15 K, x1 = 0.2022 | 779.7 | 1.3702 | 1.044
298.15 K, x1 = 0.2783 | 779.2 | 1.3687 | 0.8677
298.15 K, x1 = 0.3678 | 777.65 | 1.3667 | 0.7248
298.15 K, x1 = 0.4768 | 778.79 | 1.3635 | 0.6062
298.15 K, x1 = 0.6132 | 776.2 | 1.3591 | 0.4735
298.15 K, x1 = 0.7714 | 775.79 | 1.3528 | 0.384
298.15 K, x1 = 0.9207 | 775.95 | 1.3452 | 0.3499
298.15 K, x1 = 1 | 776.64 | 1.3411 | 0.3369
303.15 K, x1 = 0.0496 | 776.32 | 1.3715 | 1.474
303.15 K, x1 = 0.0906 | 775.84 | 1.3707 | 1.288
303.15 K, x1 = 0.1529 | 775.13 | 1.3694 | 1.069
303.15 K, x1 = 0.2022 | 774.54 | 1.3684 | 0.9367
303.15 K, x1 = 0.2783 | 773.97 | 1.3666 | 0.7975
303.15 K, x1 = 0.3678 | 772.88 | 1.3641 | 0.6615
303.15 K, x1 = 0.4768 | 771.84 | 1.3608 | 0.5492
303.15 K, x1 = 0.6132 | 771.13 | 1.3561 | 0.4429
303.15 K, x1 = 0.7714 | 770.52 | 1.35 | 0.3617
303.15 K, x1 = 0.9207 | 770.59 | 1.3433 | 0.3311
303.15 K, x1 = 1 | 771.21 | 1.339 | 0.3254
308.15 K, x1 = 0.0496 | 771.86 | 1.3694 | 1.296
308.15 K, x1 = 0.0906 | 771.31 | 1.3687 | 1.15
308.15 K, x1 = 0.1529 | 770.57 | 1.3679 | 0.9576
308.15 K, x1 = 0.2022 | 769.92 | 1.367 | 0.846
308.15 K, x1 = 0.2783 | 768.98 | 1.3657 | 0.7168
308.15 K, x1 = 0.3678 | 767.8 | 1.3637 | 0.6057
308.15 K, x1 = 0.4768 | 766.44 | 1.3605 | 0.5051
308.15 K, x1 = 0.6132 | 765.75 | 1.3557 | 0.4111
308.15 K, x1 = 0.7714 | 765.26 | 1.3491 | 0.3442
308.15 K, x1 = 0.9207 | 765.18 | 1.3417 | 0.3202
308.15 K, x1 = 1 | 765.75 | 1.3371 | 0.3082
